Measured values reported in patent US20150307573A1, “CYLINDRINS AS ETIOLOGIC AGENTS OF AMYLOID DISEASES” (The Regents of the University of California, priority 2012, published 2015).
Read-outs that look alike come from different tables or passages of the source. Where no end group is shown, it is not given here.

How the values were obtained:
[1] = tested on: HeLa, HEK293, PC-12 and SH-SY5Y cells
OC antibody = assay: Immuno-dot blot with fibril-specific antibodies OC; assay type: binding
Description: (§1) Briefly, a small aliquot of cylindrin peptide samples, at a concentration of a few mg/mL, were spotted onto a nitrocellulose membrane (Trans-Blot, Bio-Rad, Hercules, Calif.). After blocking with 10% fat free milk in TBST buffer (50 mM Tris, 150 mM NaCl, 0.05% Tween20), the membranes were incubated with polyclonal antibody or monoclonal antibody (˜1:250 dilution in 5% fat free milk, TBST buffer) at room temperature for 1 hour. The membranes were washed three times in TBST buffer before incubating with anti-rabbit HRP-linked antibody (1:5000 dilution in 5% fat free milk, TBST buffer) (Invitrogen, Carlsbad, Calif.) at room temperature for 1 hour. After washing the membranes three times in TBST buffer, the films were developed following the protocol as described in the Kit (Thermo Scientific Pierce ECL Western Blotting Substrate, #32209). Positive controls for A11 and OC were prefibrillar oligomers and fibrils, respectively (14).

polyclonal antibody A11 = assay: Immuno-dot blot with oligomer-specific antibody A11; assay type: binding
Description: as §1

[2] = Membrane leakage (liposome calcein dye-release) experiments; assay type: biochemical; details: for maximum leakage (calcein release): 5, 20, 50 μM peptide, up to 30 hours; for liposome integrity / dye release: FIG. 8
Description: Calcein-containing LUVs were prepared as described previously (19), with minor modifications. 1-palmitoyl-2-oleoyl-sn-glycero-3-phosphocholine (POPC) and 1-palmitoyl-2-oleoyl-sn glycero-3-phospho-L-glycerol (POPG) were obtained from Avanti Polar Lipids (Alabaster, Ala.). Mixtures of POPC and POPG in a 7:3 molar ratio were dissolved in 1:1 chloroform:methanol. The solvent was evaporated under dry nitrogen gas to yield a lipid film that was further dried under vacuum for at least 24 hours to remove any residual organic solvent. The film was then hydrated in 70 mM calcein (Sigma Aldrich, St. Louis, Mo.) and 10 mM Tris-HCl (pH 7.4) at a lipid concentration of 5 mM. The suspensions were subjected to 10 freeze-thaw cycles of temperatures of −80 and 50° C., followed by extrusion through two 0.2 μm pore size filters (Whatman, Florham Park, N.J.). Non-encapsulated calcein was separated from calcein-filled LUVs by size exclusion using a Sephadex G-75 (GE Healthcare, Piscataway, N.J.) equilibrated in buffer (10 mM Tris-HCl pH 7.4, 100 mM sodium chloride). The calcein-containing LUVs were concentrated to 3-5 mM and stored at 4° C. Phospholipid content and concentrations of the LUVs were determined by RP-HPLC using 100% Methanol and 100 mM TEAC (tetraethylammonium chloride) pH 7.8 as the solvent and a C18 column. Diameter of LUVs were determined using a Microtrac UPA 150 (York, Pa.). […] LUVs were used for experiments within 5 days of preparation.
Pure, lyophilized K11V-TR and K11VV2L-TR peptides were solubilized in water. Three different stock solutions were made at concentrations of 0.2, 0.8, and 2 mM. 5 uL of each peptide stock solution was added to a well containing 195 uL of 7:3 calcein-containing POPC:POPG LUVs in a buffer (10 mM Tris-HCL pH 7.4, 100 mM sodium chloride). Dye leakage was measured using a SpectraMax5 (Molecular Devices, Sunnyvale, Calif.) at 485 nm excitation and a 535 nm emission. Measurements were taken every 10 minutes for 30 hours. Each well contains a final LUV concentration of 100 μM with final K11V-TR and K11VV2L-TR construct concentrations of 5, 20, and 50 μM. Synthetic human Islet Amyloid Polypeptide (hIAPP) residues 8-37, purchased from CS-Bio (Menlo Park, Calif.), was used as a positive control; since hIAPP has been previously shown to interact and disrupt membranes (15, 16). Lyophilized hIAPP was dissolved in 100% hexafluoro-2-propanol (HFIP) and put under vacuum to evaporate the HFIP. hIAPP was then reconstituted in water at 0.2 mM, filtered using a 0.2 μm filter, and added to six wells containing 100 μM Calcein-containing LUVs to a final concentration of 5 μM hIAPP. Fluorescence at a given time point was normalized as described previously (20), using the equation: Fnormalized=(Ft−Fmin)/(Fmax−Fmin) Ft is the measured fluorescence intensity, Fmin the fluorescence of 100 μM calcein-containing LUVs alone, and Fmax is the maximum fluorescence determined by incubation of 100 μM LUVs in the presence of 0.5% Triton X-100.

in vitro = details: human (HeLa, HEK293, SH-SY5Y); rat (PC-12)
[3] = tested on: Hela; ES derived motor neurons (GFP+); assay: Toxicity assay of SOD1 cylindrins (MTT, visual inspection of GFP+ neuron morphologies); assay type: cell-based
[4] = molecular target: the molecule itself; assay: X-ray crystal structure; self-association of identical chains
Description: The SOD1-derived peptide […] (SEQ ID NO:61) was crystallized and data collection was performed as follows: The peptide was crystallized via hanging-drop vapor diffusion at 18° C. The peptide was dissolved at 50 mg/mL in 50 mM Tris, then was mixed 1:1 with the reservoir solution: 0.2M Na Citrate pH 5, 13% PEG 6000. The peptide grew into needle-shaped crystals in 2-3 days. For data collection, hundreds of crystals were mounted because of their quick decay. However, two larger crystals were able to be used to collect complete data sets, by diffracting from several points along the length of the crystals. Diffraction from iodine-soaked crystals was used to obtain phases by SIRAS.

[5] = molecular target: the molecule itself; assay: native nanoelectrospray mass spectrometry; self-association of identical chains
Description: The cylindrin peptide abbreviation (see Table 1) is labeled for the respective mass spectrum in the upper right corner of the inset. (A) Mass spectrum of cylindrin peptide, K11VV2L dissolved directly in 200 mM ammonium acetate buffer. Expansion of the hexameric oligomers with n-1 and n-2 dissociation products (see for review (13)), shown in inset. […] The n-1 (pentamer) and n-2 (tetramer) dissociated species are located under the respective label, corresponding to ions with +4 and +3 charge states, respectively. The 1231.76 ion corresponds to the K11VV2L peptide chain with a +1 charge state. (B) Native mass spectrum of K11V-TR purified by size exclusion chromatography (see methods for details). […] The labeled +2 and +6 charge state ions correspond to one and four peptide chains, respectively. […]
One to five milligrams of lyophilized peptide was dissolved in 1 mL of water and filtered through a 0.22 or 0.45 μm Centrex MF filter (Whatman, Florham Park, N.J.). […] Absorbance at 220 nm and 280 nm were recorded using a Waters 2487 dual λ absorbance detector (Waters, Milford, Mass.). Protein standards were monitored by absorbance at 280 nm, and cylindrin peptides monitored by absorbance at 220 nm.

GDVIEV [G6V fibrils]
toxicity of fibrils ([1]; fibrils, in contrast to oligomeric solutions): no toxicity

GKLKVLGDVIEVGGKLKVLGDVIEV [K11V-TR fibrils] (not fully specified)
recognition by OC antibody (OC antibody): recognized only by the OC antibody | recognition by OC antibody (OC antibody; listed as fibrils of K11V-TR): immunoreactive | recognition by A11 antibody (polyclonal antibody A11): recognized only by the OC antibody

GKLKVLGDVIEVGGKLKVLGDVIEV [Peptide K11V-TR, tandem repeat of K11VV2L, double glycine linker, additional N-terminal glycine]
maximum leakage (calcein release) ([2]; 100 μM LUVs): 10% | liposome integrity / dye release [2]: did not exhibit this trend | cell toxicity ([1]; different peptide concentrations, HEK293, HeLa, PC12, SH-SY5Y, FIG. 7): concentration dependent cell toxicity | cell toxicity (cell viability) ([1]; final concentration 100 μM, four mammalian cell lines, FIG. 1F): toxic | recognition by A11 antibody (polyclonal antibody A11): recognized by A11

GKVKVLGDVIEVGGKVKVLGDVIEV [K11V-TR (wild-type)]
maximum leakage (calcein release) ([2]; 100 μM LUVs): 10%

H-GKLKWLGDVIEVGGKLKWLGDVIEV-OH [Peptide K11VV4W-TR]
viability at 24 h, 100 µM (in vitro): ~100%

KLKVLGDVIEV [Peptide K11VV2L]
recognition by A11 antibody (polyclonal antibody A11): recognized by A11

KVKVWGSIGKL [KVKVWGSIKGL]
toxicity to cultured cells ([3]; peptide (cylindrin)): toxic | toxicity to cultured cells ([3]; peptide amyloid-like fibrils): non-toxic

cylindrin: six-stranded anti-parallel barrel oligomer of K11V (KVKVLGDVIEV)
recognition by A11 antibody (polyclonal antibody A11): recognizes

hIAPP8-37: Synthetic human Islet Amyloid Polypeptide residues 8-37, positive control (ATQRLANFLVHSSNNFGAILSSTNVGSNTY; ends and bridges not checked; UniProt P10997 41-70, looked up, fragment) [reference compound]
leakage (calcein release) ([2]; 5 μM positive control, 100 μM LUVs): up to 60% | liposome integrity / dye release [2]: clearly diminished liposome integrity leading to dye release

B1: SOD1-derived peptide KVKVWGSIKGL, SOD1(29-39) P29K (peptide)
peptide: KVKVWGSIKGL
notes: Open-ended oligomer (corkscrew), 16 strands per turn, any number of peptide units; also called SOD1 cylindrin; kv11
binding result [4]: binds

B2: K11V-TR tandem repeat cylindrin peptide (tandem repeat of K11VV2L), oligomeric solution (peptide)
peptide: GKLKVLGDVIEVGGKLKVLGDVIEV
notes: Trimer of 25-residue chains (SEC, native MS, crystal structure 3SGR); also called K11VV2L-TR; tandem repeat segment
binding result [5]: binds

B3: K11VV2L cylindrin peptide (KLKVLGDVIEV), oligomeric solution (peptide)
peptide: KLKVLGDVIEV
notes: Forms hexameric oligomers (native MS, crystal structure 3SGP); also called single segment; alphaB crystallin residues 90-100 mutant V91L
binding result [5]: binds
